Assay results as given in patent publication US20160348148A1, “MICROWELL PLATE FOR HIGH-THROUGHPUT DETECTION AND APPLICATION THEREOF” (SHANGHAI JIAOTONG UNIVERSITY, priority 2013, published 2016).
Where two headings read alike, the source gives them in different places.

Key:
hCBS = molecular target: T1, hCBS (Homo sapiens, UniProt P35520); assay: High-throughput screening of hCBS enzymatic reaction inhibitors (H2S detection with DTNB in microwell plate); assay type: biochemical
T1 construct: made in house
T1 sequence (P35520 1-551): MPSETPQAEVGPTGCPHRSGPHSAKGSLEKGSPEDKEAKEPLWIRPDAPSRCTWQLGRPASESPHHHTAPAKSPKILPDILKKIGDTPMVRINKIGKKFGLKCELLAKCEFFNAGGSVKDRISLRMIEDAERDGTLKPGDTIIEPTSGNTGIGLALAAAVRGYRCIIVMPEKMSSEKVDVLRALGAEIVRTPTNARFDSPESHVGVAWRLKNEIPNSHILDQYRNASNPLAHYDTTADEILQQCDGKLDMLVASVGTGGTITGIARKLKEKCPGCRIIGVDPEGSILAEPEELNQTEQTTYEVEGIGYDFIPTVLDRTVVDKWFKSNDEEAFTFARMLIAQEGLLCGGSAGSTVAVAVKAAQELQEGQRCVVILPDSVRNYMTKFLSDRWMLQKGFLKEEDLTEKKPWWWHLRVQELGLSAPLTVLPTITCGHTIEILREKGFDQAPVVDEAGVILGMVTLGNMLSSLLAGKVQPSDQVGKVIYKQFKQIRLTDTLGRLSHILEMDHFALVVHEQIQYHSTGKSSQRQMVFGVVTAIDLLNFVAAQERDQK

hDDC = molecular target: T2, hDDC (Homo sapiens, UniProt P20711); assay: IC50 to hDDC (specificity test, coupled enzyme assay); assay type: biochemical
T2 construct: made in house
T2 sequence (P20711 1-480): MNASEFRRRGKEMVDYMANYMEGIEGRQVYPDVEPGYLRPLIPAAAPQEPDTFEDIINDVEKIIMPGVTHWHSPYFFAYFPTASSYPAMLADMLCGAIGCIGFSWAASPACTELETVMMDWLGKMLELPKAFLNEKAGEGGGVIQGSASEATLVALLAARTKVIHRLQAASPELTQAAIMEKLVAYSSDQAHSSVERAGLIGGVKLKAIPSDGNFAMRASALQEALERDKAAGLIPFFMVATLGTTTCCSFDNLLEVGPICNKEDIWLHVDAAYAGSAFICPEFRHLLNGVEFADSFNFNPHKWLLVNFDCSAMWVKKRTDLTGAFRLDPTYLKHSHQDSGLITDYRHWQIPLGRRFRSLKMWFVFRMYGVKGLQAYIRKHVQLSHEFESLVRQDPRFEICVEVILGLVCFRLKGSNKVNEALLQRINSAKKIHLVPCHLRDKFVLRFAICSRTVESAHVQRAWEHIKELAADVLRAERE
Procedure: By referring to the experiment method in Assay Drug Dev Technol. […] Smithson, IC50 of the 9 compounds to hDDC was determined.

[1] = 100 nM hCBS, 4 mM L-Cys, 4 mM D,L-HCys, pH 8.6, 60 min at 37° C., read-out: IC50 to hCBS

CCCCCCCCCCCCCCCC[N+](C)(C)CCN(Cc1ccc(OC)cc1)c1ncccn1 [Compound 2]
IC50 (hCBS; [1]): 8 µM
IC50 (hDDC; read-out: IC50 to hDDC): 16 µM

CCN(CC)c1ccc(C(=C2C=CC(=[N+](CC)CC)C=C2)c2ccc(N(CC)CC)cc2)cc1 [Compound 3]
IC50 (hCBS; [1]): 15 µM
IC50 (hDDC; read-out: IC50 to hDDC): 25 µM

CC1CCN(C2=C(Cl)C(=O)c3ccccc3C2=O)CC1 [Compound 5]
IC50 (hCBS; [1]): 20 µM
IC50 (hDDC; read-out: IC50 to hDDC): 300 µM

COc1ccc2c(NCCCCCCNc3c4ccccc4nc4cc(OC)ccc34)c3ccccc3nc2c1 [Compound 6]
IC50 (hCBS; [1]): 30 µM
IC50 (hDDC; read-out: IC50 to hDDC): 110 µM

N=C(N)NCCCS(=O)(=O)Nc1ccc(Nc2c3ccccc3nc3cc([N+](=O)[O-])ccc23)cc1 [Compound 7]
IC50 (hCBS; [1]): 40 µM
IC50 (hDDC; read-out: IC50 to hDDC): 60 µM

C/C1=C2/[N]([Co][OH])[C@H]([C@H](CC(N)=O)[C@@]2(C)CCC(=O)NC[C@@H](C)OP(=O)(O)OC2[C@@H](CO)O[C@H](n3cnc4cc(C)c(C)cc43)[C@H]2O)[C@]2(C)N=C(/C(C)=C3N=C(/C=C4N=C1[C@@H](CCC(N)=O)C\4(C)C)[C@@H](CCC(N)=O)[C@]\3(C)CC(N)=O)[C@@H](CCC(N)=O)[C@]2(C)CC(N)=O (stereo partly shown) [Compound 8, Hydroxocobalamin, reference compound]
IC50 (hCBS): 35 µM
IC50 (hDDC): 150 µM

Cn1ncnc2c(=O)n(C)c(=O)nc1-2 [Compound 9]
IC50 (hCBS; [1]): 12 µM
